The test system of data set [1] is human LPL mRNA. The data set is described as follows: Test for increase in LPL mRNA expression (luciferase assay, HTB-92/p387/p383 cell line). In kind it is cell-based. The note with it: 120 h, HTB-92/p387/p383 cells, 5 days; for maximal fold induction: Max. Ind. Value=Lt/Lc, maximum luciferase activity over control; for EC50: concentration that increases LPL mRNA expression over the control by 50%. The text has this:
Pharmacological Test 1 Test for Increase in LPL mRNA Expression
A luciferase assay was employed to simply and quickly detect an increase in human LPL mRNA. The principle of the assay is as follows:
Luciferase emits light when reacted with luciferine (substrate). The expression of LPL mRNA is controlled by 5′-UTR and 3′-UTR (promoter regions) of the LPL gene. By introducing the promoter regions of the LPL gene into a commercially available plasmid (for example, that produced by Clonetics Corp.) to produce a plasmid (reporter plasmid) that stably expresses luciferase in human cells, such a plasmid expresses luciferase only under conditions in which LPL mRNA can increase. Therefore, when the substrate is introduced to the expression system and the amount of luciferase expression (luciferase activity) is quantified as the extent of chemiluminescence, the amount of LPL mRNA expression can be estimated.
The test herein was performed as follows: Using a plasmid for the luciferase assay manufactured by Clontech, wherein human LPL 5′-UTR (Enerback, S., et al., Mol. Cell. Biol. 12 (10) (1992): 4622-4633) and 3′-UTR (Wion, K. L., et al., Science 235 (1987): 4796, 1638-1641) had been inserted, human-derived liposarcoma cell line SW872 (ATCC Accession No. HTB-92) was transformed to prepare an HTB-92/p387/p383 cell line, which stably expresses luciferase.
This HTB-92/p387/p383 cell line was introduced into a 225 cm^2 culture flask furnished with a culture medium and cultured at 37° C. in the absence of CO2 until reaching confluence. Leibovitz's L-15 culture medium (containing 10% FBS, 1% GlutaMaxII, 10 μg/ml streptomycin, 1 μg/ml puromycin, 250 μg/ml hygromycin B) was used as the culture medium. After reaching confluence, the cells were collected, plated on 384-well plates to have 20000 cells/well, and cultured with 50 μl/well of the culture medium under the same conditions as above (37° C., absence of CO2). After 3 days of culturing, the culture medium was replaced by 50 μl/well phenol-red-free DMEM (containing 10% FBS, 1% GlutaMax, 10 U/ml penicillin, 10 μg/ml streptomycin, 1 μg/ml puromycin, 250 μg/ml hygromycin, 1 μM dexamethasone, 0.5 μM IBMX; differentiation medium), and the cells were cultured for 5 more days at 37° C. in the presence of CO2 to differentiate.
Furthermore, the culture medium was replaced by a 50 μl/well medium containing a compound of the invention (compound prepared in an Example) as a test substance wherein the compound had been conditioned with DMSO to a specific concentration selected from 10^−4 M to 3×10^−10M. The cells were cultured for 5 days at 37° C. in the presence of CO2.
After 5 days of culturing, a luciferase substrate solution (manufactured by Promega Corporation) was introduced to each well in an amount of 30 μl/well. The cells were left to stand 10 minutes at room temperature, and luciferase activities were measured by a luminometer (a microplate scintilltion counter; The Wallac MicroBeta Trilux, manufactured by Perkin Elmer, Inc.).
Cells that had been cultured and differentiated in a differentiation medium prepared by adding 0.1% DMSO to the above-mentioned DMEM medium (differentiation medium) not containing phenol red were used as a control (i.e., cultured and differentiated for 5 days and then stimulated for 5 days). The luciferase activity of these control cells were measured as above. The EC50 value (the concentration of test substance that can increase the amount of LPL mRNA expression over the control by 50%, unit: M) was calculated based on the straight line obtained by plotting the results of the tests performed using the test substances at varying concentrations. The maximum induction (Max. Ind. values) was calculated according to the following equation: Max. Ind. Value=Lt/Lc wherein Lt represents the maximum luciferase activity occurred in response to test substance stimulation; and Lc represents the value indicating the luciferase activity of the control.

The nature of data set [2]: Therapeutical effect on olive oil-induced triglyceride hyperlipidemia models. The note with it: once a day for one week, SD rats, 2 h after olive oil. In kind it is in vivo. The protocol:
Test of Therapeutical Effect on Olive Oil-Induced Triglyceride Hyperlipidemia Models
To conduct this test, 6-week-old SD rats (purchased from Charles River Japan) were used.
According to the body weight of the test rats when they were 5 weeks old, the test rats were divided into test groups and a control group with 6 rats per group.
A predetermined amount of each compound prepared in the Examples was measured and placed in an agate mortar. While 5% aqueous gum arabic solution was gradually introduced to the mortar, the compound was uniformly ground and suspended. Test samples were prepared by further adding 5% aqueous gum arabic solution gradually. Subsequently, these test samples were subjected to ultrasonic washing for 10 minutes to homogenize. Test samples were prepared as and when necessary.
The rats of the test groups were orally administered with the compounds of the invention such that rats received the compounds in an amount of 10, 30, or 100 mg/kg. The compounds of the invention were formulated as 5% gum arabic suspensions as described above.
The rats of the control group were orally administered with 5% aqueous gum arabic solution (not containing the compounds of the invention) in an amount of 5 ml/kg body weight. Administration was conducted once a day continuously for one week at a specific time of day after the rats reached 6 weeks of age. This test was performed under non-fasting conditions (rats had free access to feed and water), and the rats were fasted after the final administration of the compounds or 5% aqueous gum arabic solution.
Two hours after the final administration, olive oil was orally administered to the rats from both groups in an amount of 3 ml/kg body weight.
Two hours after the olive oil administration, blood was collected from the abdominal aorta of the rats of the respective groups using a heparinized syringe. The plasma was centrifugally separated from the blood at a temperature of 4° C., and the triglyceride level of the plasma was measured. A Hitachi 7170 automatic analyzer was used as the measuring instrument. Using the values measured from the test groups and control group, the decrease (%) in plasma triglyceride level was calculated according to the following equation: Decrease (%) in plasma triglyceride concentration=(1−E/C)×100 wherein E represents the average plasma triglyceride level in each test group; and C represents the average plasma triglyceride level in the control group.

Data set [3] in a line: Anti-obesity test using Zucker fatty rats. Format: in vivo. Conditions: 100 mg/kg oral, once a day over 4 weeks, relative to control group. The text has this:
Anti-Obesity Test Using Zucker Fatty Rats
Zucker fatty rats are obese rats discovered by Zucker et al., in 1961 as mutants among 13 M rats, which are a hybrid between 13C and M rats. These rats (fa/fa) start to appear distinctly obese from normal broods around the age of 3 weeks. As they age, the weight difference between the fatty rats and normal rats increases. Zucker fatty rats are currently kept by a variety of organizations as simple obesity models, and are readily obtainable.
This test was performed using this rat model to evaluate the anti-obesity action of the compounds of the invention. The preparation method of test samples and the test procedures are described below:
The test samples were prepared in the same manner as in Test Example 2.
Zucker fatty rats and lean rats (both from Charles River Japan) were purchased at the age of 5 weeks. They were divided into groups (10 rats per group) according to body weight when they reached 6 weeks old. After acclimatization, the administration of test samples was initiated when the rats reached 8 weeks old. Test samples were orally administered using an oral gavage so that the compounds of the invention contained in the test samples were given in an amount of 100 mg/kg body weight (test sample dosage: 5 ml/kg body weight). The test samples were administered once a day over 4 weeks at a specific time of day.
As a control, a group of rats were administered with the same amount of 5% aqueous gum arabic solution (5 ml/kg body weight) instead of the test samples.
The rats of all groups were weighed on the last day of administration. The average body weight of the rats of each test group was compared with the average body weight (standard weight) of the rats of the control group to obtain the weight variations (differences). The weight differences were expressed as percentages in relation to the standard weight. The values thus calculated are referred to as “weight change %”. When a weight difference is negative relative to the standard weight, weight change % is shown with “−” (minus).
During the test period, the rats of the respective groups had free access to rat feed (“CRF-1”, manufactured by Oriental Yeast, Co., Ltd.) and water (tap water).

The subject of data set [4] is LPL. Description: Test for LPL activity-increasing effect in normal rats (skeletal muscle LPL activity). Format: in vivo. Conditions: every day for 1 week, SD rats, soleus muscle, 4 h after administration. The method, then: Test for LPL Activity-Increasing Effect in Normal Rats
6-week-old SD rats (purchased from Charles River Japan) were used as subjects. The rats were divided into groups according to body weight at the age of 5 weeks. The rats in each test group were orally administered with a 5% gum arabic suspension in an amount of 5 ml/kg of body weight, the suspension containing the test compound of the invention in such an amount that the dose of the compound of the invention became 30 mg/kg of body weight in one group and 100 mg/kg of body weight in another group. The rats in a control group were orally administered with a 5% gum arabic suspension (not containing the test compound of the invention) in an amount of 5 ml/kg of body weight. Each sample suspension was orally administered every day at a specific time of day for 1 week starting when the rats reached the age of 6 weeks.
Four hours after the administration of the sample suspension, skeletal muscle tissues of the rats were collected, then freeze-clamped and stored under liquid nitrogen. LPL activity in the skeletal muscle tissues was measured by the following method.
The soleus muscle was homogenized in a chilled solution of 0.05 mol/L NH4OH—NH4Cl buffer (pH 8.5) containing 0.5 U/mL heparin at 1 mL/100 mg of tissue wet weight. After standing on ice for 60 min with vigorous mixing at intervals of 15 min, the homogenate was centrifuged at 3000 rpm and 4° C. for 10 min and the supernatant was separated.
The substrate solution was prepared by mixing 2 μCi of glycerol tri[1-^14C]oleate, 0.133 g of unlabeled triolein, 0.9 mL of 1% Triton X-100, and 0.9 mL of 4% bovine serum albumin. in 0.2 mol/L Tris-HCl buffer (pH 8.6) and 10.2 mL of 0.2 mol/L Tris-HCl buffer (pH 8.6). The mixture was emulsified by sonication on ice for 3 min.
In a glass test tube, 0.1 mL of the tissue extract, 0.05 mL of heat-inactivated rat serum and 0.15 mL of 4% bovine serum albumin in 0.2 mol/L Tris-HCl buffer (pH 7.4) were mixed. Enzyme reaction was started by adding 0.2 mL of the substrate solution and was carried out for 30 min. at 37° C.
The reaction was stopped by addition of 2 mL of 1.5 mol/L H2SO4/2-propanol (1:40, v/v), and 1 mL of distilled water and 3 mL of hexane were added into the test tube. After vigorously shaking for 10 min. at room temperature, the test tube was centrifuged for 10 min. at 3000 rpm.
The upper layer (3.5 mL) was collected in a new test tube and mixed with 1 mL of 0.1 mol/L KOH.
The test tube was vigorously shaken for 10 min. at room temperature and then centrifuged for 10 min. at 3000 rpm.
After removing the upper layer, 1 mL of the lower layer (water phase) was transferred into a vial for counting, neutralized with 50 μL of 1.3 mol/L HCl and mixed with 4 mL of scintillator. The radioactivity was measured using a liquid scintillation counter.
The LPL activity increase (%) was calculated from the measured values of LPL activity in the control group and test groups according to the following formula: LPL activity increase (%)=(Test group average value)/(Control group average value)×100−100

In general, maximal fold induction refers to the signal under treatment as a multiple of the control signal. In general, melting point refers to the temperature, or range, at which the solid turns liquid.

Turning to `COc1cc(-c2cn3ccccc3n2)ccc1OCc1ccccc1` [Example 1, 2-(4-benzyloxy-3-methoxyphenyl)imidazo[1,2-a]pyridine], the melting point is 128 to 129.5 °C. In data set [1], this compound registered a maximal fold induction of 3 and an EC50 of 6.3 µM. The “Decrease in plasma triglyceride level (%)” value (“Decrease … (%)” below) in data set [2] (10 mg/kg oral) came out at 26%. For the same compound, the “Decrease … (%)” value in data set [2] (30 mg/kg oral) was 50%. Further, the “Decrease … (%)” value in data set [2] (100 mg/kg oral) worked out at 76%. The “Weight Change (%)” value in data set [3] is on record as −8%.

Consider `COc1cc(-c2cn3ccsc3n2)ccc1OCc1ccc(Cl)cc1` [Example 23, 6-[4-(4-chlorobenzyloxy)-3-methoxyphenyl]imidazo[2,1-b]thiazole], for which the melting point lay in the range of 126 to 128 °C. For the same compound, in data set [2] (10 mg/kg oral), the “Decrease … (%)” value is recorded as 66%. Also, the “Decrease … (%)” value in data set [2] (30 mg/kg oral) is recorded as 78%. Moreover, the “Decrease … (%)” value in data set [2] (100 mg/kg oral) amounted to 77%. Besides, in data set [4] (30 mg/kg oral), the “Increase of skeletal muscle LPL activity compared to control (%)” value (“Increase … (%)” below) came to 18%. For the same compound, the “Increase … (%)” value in data set [4] (100 mg/kg oral) is 15%.

For the compound `COc1cc(-c2cn3ccccc3n2)ccc1OCc1ccc(C#N)cc1` [Example 30], the melting point lay in the range of 175 to 177 °C. For the same compound, in data set [1], the maximal fold induction turned out to be 1.9 and the EC50 turned out to be 6.7 µM. In data set [4] (30 mg/kg oral), the “Increase … (%)” value came to 22%. The “Increase … (%)” value in data set [4] (100 mg/kg oral) was determined as 31%.

In turn, `COc1cc(-c2cn3cccc(OCc4ccccc4)c3n2)ccc1OCc1ccc(Br)cc1` [Example 85] registered a melting point of 168 to 169 °C. The “Increase … (%)” value in data set [4] (30 mg/kg oral) was 9%. For the same compound, the “Increase … (%)” value in data set [4] (100 mg/kg oral) amounted to 36%.

In turn, `COc1cc(-c2c[nH]c(-c3ccc(C(F)(F)F)cc3)n2)ccc1OCc1ccccc1.Cl` [Example 95, 4-(4-benzyloxy-3-methoxyphenyl)-2-(4-trifluoromethylphenyl)imidazole] registered a melting point of 247 to 249 °C. Further, the “Decrease … (%)” value in data set [2] (10 mg/kg oral) is 28%. Besides, the “Decrease … (%)” value in data set [2] (30 mg/kg oral) stood at 65%. Also, the “Decrease … (%)” value in data set [2] (100 mg/kg oral) came to 81%. Besides, the “Weight Change (%)” value in data set [3] is on record as −15%. Besides, the “Increase … (%)” value in data set [4] (30 mg/kg oral) worked out at 13%. Besides, the “Increase … (%)” value in data set [4] (100 mg/kg oral) is recorded as 25%.

The values are drawn from patent publication US8895599B2, “Lipoprotein lipase-activating compositions comprising benzene derivates” (Otsuka Pharmaceutical Factory, Inc., priority 2008, dated 2014).
